The test system of this experiment is GABAARs. Kind of experiment: Whole-cell voltage-clamped recordings from hippocampal DGCs in slices (Itonic, mIPSCs). The class given is cell-based, rats. To be noted: for GABAergic Itonic: basal Itonic 20 pA. The source says:
2) Whole-Cell Patch-Clamp Recordings from Brain Slices. Transverse slices (400 lm) of dorsal hippocampus were obtained from wt and TG-SwDI mice (male, 20 months old) using a vibratome (VT 100; Technical Products International). Slices were perfused continuously with artificial CSF (ACSF) composed of the following (in mM): 125 NaCl, 2.5 KCl, 2 CaCl2, 2 MgCl2, 26 NaHCO3, and 10 D-glucose. The ACSF was bubbled continuously with 95% O2/5% CO2 to ensure adequate oxygenation of slices and a pH of 7.4 and kept at 34±0.5° C. for perfusion. TTX (0.5 μM), APV (40 μM), CNQX (10 μM), and CGP54626 (1 μM, GABABR antagonist) were added to ACSF to pharmacologically isolate GABAAR-mediated mIPSCs. Patch electrodes were filled with internal solution containing the following (in mM): 137 CsCl, 2 MgCl2, 1 CaCl2, 11 EGTA, 10 HEPES, and 3 ATP, pH adjusted to 7.30 with CsOH. Recordings targeted dentate gyms granule cells (DGCs) of hippocampal slices. Voltage-clamp whole-cell recording was performed using a patch clamp amplifier 3) EPM: All animals were tested anxiety levels on EPM. Animals were placed on the central area of the maze, tested for 5 min and video recorded. The following measures were scored: number of entries into open arms, closed arms, or center platform and time spent in each of these areas. Data were reported as % of number of entries in arms, % of time spent in different entries, and number of total entries.
To evaluate whether DHM-Piperidine Complex (D-P) can still potentiate GABAARs, whole-cell voltage-clamped recordings from hippocampal DGCs in slices were performed to test D-P and compared with DHM effects on GABAergic tonic current (Itonic) and miniature inhibitory postsynaptic currents (mIPSCs). […] Compared with DHM enhancing GABAergic Itonic from 20 pA (basal Itonic)→28 pA→31 pA→52 pA→55 pA, D-P enhancing GABAergic Itonic from 20 pA (basal Itonic)→35 pA→42 pA →65 pA→70 pA (Table 1).

Marks after values point to notes of the source that are not given here.

For the substance “piperidin-1-ium (2R,3R)-2-(3,4-dihydroxy-5-oxidophenyl)-3,5-dihydroxy-4-oxochroman-7-olate [D-P]”, the “Itonic, percent in brackets (increase over basal)” value runs as follows: (0.1 μM) “(75%)*”; (0.3 μM) “(110%)*”; (1 μM) “(225%)*”; (10 μM) “(250%)*”. In addition, the “mIPSCs (area potentiated)” value (0.1 μM) is 16.7%*, the “mIPSCs (area potentiated)” value (0.3 μM) turned out to be 23.3%*, the “mIPSCs (area potentiated)” value (1 μM) is 100.0%* and the “mIPSCs (area potentiated)” value (10 μM) is listed as 133.3%*. Also, the “GABAergic Itonic” value is, setting by setting: (0.1 μM) 35 pA; (0.3 μM) 42 pA; (1 μM) 65 pA; (10 μM) 70 pA.

For the origin of these results see patent US12194021B2, “Modified herbal compositions for neuromodulation” (University of Southern California, priority 2021, dated 2025).
